Earlier results in patent publication US20250302774A1, “LISDEX[…] OROD[…] AND PROCESS FOR PREPARATION THEREOF” (ATHENA PHARM[…], priority 2024, published 2025).
Read-outs that look alike come from different tables or passages of the source.

How the values were obtained:
[1] = active substance, exposed to moisture, dimethanesulfonate

In the case of `CS(=O)(=O)O.CS(=O)(=O)O.C[C@@H](Cc1ccccc1)NC(=O)[C@@H](N)CCCCN` [Lisdexamfetamine dimesylate, (2S)-2,6-diamino-N-[(1S)-1-methyl-2-phenylethyl]-hexanamide, dimethanesulfonate], the “hygroscopic / deliquescent nature” value [1] is listed as “highly deliquescent”, the “hygroscopic / deliquescent nature” value ([1]; listed as lisdexamfetamine dimesylate) is listed as “hygroscopic” and the solubility (in acetone) is listed as “very slightly soluble”. For the same molecule, the solubility (in chloroform) was “very slightly soluble”, the solubility (in ethanol) was “soluble” and the solubility (in methanol) was “freely soluble”. For the same molecule, the solubility (in tetrahydrofuran) was “practically insoluble” and the solubility (in toluene) was “very slightly soluble”.
